Experimental data: US20220211750A1, “COMPOSITIONS AND METHODS USING A COMBINATION OF CALCIUM AND AT LEAST ONE OF OLEUROPEIN OR METABOLITE THEREOF” (SOCIETE DES PRODUITS NESTLE S.A., priority 2019, published 2022)

Tested on: C2C12-derived myotubes
Experiment: Mitochondrial calcium rise (mitochondrial aequorin) in caffeine-stimulated C2C12-derived myotubes
Assay type: cell-based, mouse
Settings: evoked by 5 mM caffeine, vs 0.5 mM calcium in the medium
Excerpt: To test the effect of Oleuropein, its metabolites and calcium supplementation/deficiency in living cells, the inventors measured mitochondrial calcium elevation in HeLa cells and in myotubes differentiated from both mouse C2C12 cells and human primary adult muscle cells. HeLa cells and C2C12 cells were purchased from ATCC. Human Skeletal Muscle Myoblasts (HSMM) were purchased from Lonza. HSMM were isolated from the upper arm or leg muscle tissue of normal donors and used after the second passage. HeLa cells were seeded in 96-well plates at a density of 50000 cells per well in minimal essential medium (DMEM, Gibco), high glucose, +10% fetal calf serum. C2C12 cells were seeded in 96-well plates at a density of 8000 cells per well in DMEM high glucose (Gibco)+10% fetal calf serum. Myotubes were differentiated from C2C12 cells by growing the cells in DMEM containing 2% horse serum, for 4 days. HSMM were seeded in 96-well plates at a density of 8000 cells per well in DMEM/F-12 (Gibco). […]
For treatment, compounds were directly added to the cell culture or myotubes cultures 2 hours before measurements. Luminescence was measured at the Cytation 3 cell imaging reader (Biotek) or at the FLIPR Tetra Aequorin (Molecular Devices). […] Custom module analysis based on Excel (Microsoft) and GhaphPad Prism 7.02 (GraphPad) software was used for quantification.

[Ca+2] [calcium]
integrated mitochondrial calcium rise, effect of extracellular calcium abundance (P<0.05, listed as Ca^2+): activates mitochondrial Ca^2+ elevation in a dose/response manner | integrated mitochondrial calcium rise, effect of extracellular calcium abundance (P<0.05, listed as Ca′): enhances mitochondrial Ca′ elevation in a dose/response manner
